{"source": "patent US8546338B2", "about": "“Self-assembling hydrogels based on dicephalic peptide amphiphiles” (Johnson & Johnson Consumer Companies, Inc., priority 2010, dated 2013)", "key": {"Sprague-Dawley rats": {"test_system": "Sprague-Dawley rats", "experiment": "Biocompatibility study, gel injected into intra-gluteal muscle pocket", "assay_type": "in vivo", "conditions": "rat, in vivo", "description": "A biocompatibility study was performed on Gly-Val-Ala-Val-Ala-Val-Ala-Glu-Gly-Glu (SEQ ID NO: 4), Gly-Phe-Gly-Phe-Gly-Phe-Gly-Glu-Gly-Glu (SEQ ID NO: 5) and Gly-Phe-Gly-Phe-Gly-Phe-Gly-Gln-Gln-Ser (SEQ ID NO: 8) DPAs. Lyophilized DPA powders were e-beam sterilized in 1.5 cc polypropylene cryovials at 15 KGy. Gels were pre-formed in 1 cc syringes by mixing a 4 wt % DPA solution in water for injection in a 1:1 ratio with DMEM followed by immediate aspiration into the syringe. In the case of the formulations with the Glu-Gly-Glu (SEQ ID NO: 27) sequence in the solubility enhancing region, 10 μl of a sterile 100 mg/cc calcium chloride solution was mixed in before aspiration into the syringe. An intra-gluteal muscle pocket was created in Sprague-Dawley rats after which 100 μl of gel was injected using a catheter fitted to the syringe. Subsequently, the pocket was closed with polyglactin 910 sutures sold under the tradename VICRYL (Ethicon, Somerville, N.J.). Tissue was harvested at 3, 7 and 28 days after implantation."}, "[1]": {"experiment": "Gelation experiments: inversion test for self-supporting hydrogels", "assay_type": "physicochemical", "conditions": "for Gelation (self-supporting gel on inversion), DMEM: DPA solution in water mixed 1:1 with DMEM; for Gelation (self-supporting gel on inversion), PBS / Gelation (self-supporting gel on inversion), Water: final concentrations 1, 2 and 4 weight percent tested; for Concentration at which gel forms, Water / Gelation (self-supporting gel on inversion), Water: in water; for Concentration at which gel forms, DMEM: mixed with DMEM", "outline": "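Peptide amphiphile dissolved in ultrapure water at twice final concentration, mixed 1:1 with PBS or DMEM to give 1, 2 or 4 wt%. Gelation scored if the gel held its weight on vial inversion; where none formed, 10 μl of 100 mg/cc CaCl2 was added.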"}, "[2]": {"test_system": "human umbilical cord cells (hUTCs)", "experiment": "Cell viability of encapsulated hUTCs in DPA gels (Live/Dead)", "assay_type": "cell-based", "conditions": "2 wt % gel, 100,000 cells, after 1, 2 and 3 weeks", "description": "The viability and proliferation of cells in the gels was evaluated by encapsulating human umbilical cord cells (hUTCs) in the gels. hUTCs were isolated as described in U.S. Pat. No. 7,510,873. Cells were thawed from storage and cultured for four days in Hayflick media. After four days, the cells were trypsinized and counted by the Guava ViaCount methodology (Millipore, Billerica, Mass.). Cells were re-suspended in Hayflick media at a density of 1,000,000 cells/ml. Encapsulation of the cells in the gels was achieved by adding 100 μl cell suspension to 100 μl of a 4 wt % DPA solution in ultrapure in a 24 well plate, resulting in a final DPA concentration of 2%. The gels were incubated for 1 h at 37° C., 5% CO2 after which 1000 μl media was added on top of the gel. Cells were incubated at 37° C., 5% CO2. Every 3-4 days of culture, 500 μl media was replaced.\nAfter mixing of the cell suspension and 4% DPA solution by pipetting up and down, the protocol described above was modified by adding 10 μl 100 mg/ml calcium chloride solution upon which gelation occurred. Final concentrations are 2% in DPA and 100,000 cells. Control gels without cells were prepared by using pure media and additional cell only and cells with calcium chloride controls were prepared as standard 2D culture. After 7 days of culture, the gels were assayed with Live/Dead assay for cell viability and Invitrogen CyQuant GR assay for cell proliferation (Invitrogen, Carlsbad, Calif.). The Live/Dead was performed as described in the provided protocol but at half the […] concentration to reduce non-specific fluorescence due to dye absorption. […] The cells in the gels contained a lot of viable cells (FIG. 410). No dead cells could be observed in the gels. Therefore, the viability of these cells in the gels is very high (>95%).\nIn a second experiment, 100,000 hUTC cells were encapsulated in 2 wt % Gly-Phe-Gly-Phe-Gly-Phe-Gly-Gln-Gln-Ser (SEQ ID NO: 8) DPA gels. The cells were cultured for 3 weeks and cells were assessed after 1, 2 and 3 weeks with Live/Dead."}, "[3]": {"experiment": "Oscillating rheology, time sweep (kinetics of formation)", "assay_type": "physicochemical", "conditions": "2 wt % gels in DMEM", "description": "Oscillating rheology by the parallel plates method (radius=25 mm) was performed on 400 μl gels to assess the mechanical strengths of gels. Time sweeps were performed to evaluate kinetics of formation at a constant strain rate of 1% and frequency of 1 rad/s. Strain sweeps were performed ranging from 1-100% strain in increments of 2% at a constant frequency of 1 rad/s. Cross-over of G′ and G″ was used to determine the gel point and point of breakdown. Time sweeps were initiated immediately after mixing the solutions that lead to DPA hydrogel formation. In the strain sweeps, the gels were allowed to form on the plate for 30 minutes before the measurement is initiated.\nThe gelation process was initiated on the plate at 25° C. by the addition of 10 μl of 100 mg/ml calcium chloride solution to a solution of the DPA in DMEM."}, "[4]": {"test_system": "human kidney derived cells (hKDCs)", "experiment": "Cell viability of encapsulated hKDCs in DPA gels (Live/Dead)", "assay_type": "cell-based", "conditions": "2% DPA gel, after 1, 2 and 3 weeks", "description": "The viability and proliferation of cells in the gels was evaluated by encapsulating human kidney derived cells (hKDCs) in the gels. hKDC were isolated as described in US Patent Publication Number 2008/0112939. Cells were thawed from storage and cultured for four days in renal epithelial growth media (REGM) media. After four days, the cells were trypsinized and counted by the Guava ViaCount (Millipore, Billerica, Mass.) methodology. Cells were re-suspended in REGM media at a density of 1,000,000 cells/ml. Encapsulation of the cells in the gels was achieved by adding 100 μl cell suspension to 100 μl of a 4 wt % DPA solution in ultrapure in a 24 well plate, resulting in a final DPA concentration of 2%. The gels were incubated for 1 h at 37° C., 5% CO2 after which 1000 μl media was added on top of the gel. Cells were incubated at 37° C., 5% CO2. Every 3-4 days of culture, 500 μl media was replaced. The cells were cultured for 3 weeks and cells were assessed after 1, 2 and 3 weeks with Live/Dead."}, "[5]": {"conditions": "listed as Gly-Phe-Gly-Phe-Gly-Phe-Gly-Gln-Gln-Ser(DPA)_ (SEQ ID NO: 8)"}}, "note": "Values joined by “and” are separate entries in the source; they are usually repeats but may differ in a detail not shown here. Equal entries are not always repeated.", "data": [{"smiles": "CCCCCCCCCCCCCCCC(=O)NC(C(=O)NCC(=O)N[C@@H](Cc1ccccc1)C(=O)NCC(=O)N[C@@H](Cc1ccccc1)C(=O)NCC(=O)N[C@@H](Cc1ccccc1)C(=O)NCC(=O)N[C@@H](CCC(N)=O)C(=O)N[C@@H](CCC(N)=O)C(=O)N[C@@H](CO)C(=O)O)C(=O)NCC(=O)N[C@@H](Cc1ccccc1)C(=O)NCC(=O)N[C@@H](Cc1ccccc1)C(=O)NCC(=O)N[C@@H](Cc1ccccc1)C(=O)NCC(=O)N[C@@H](CCC(N)=O)C(=O)N[C@@H](CCC(N)=O)C(=O)N[C@@H](CO)C(=O)O", "note": "[Gly-Phe-Gly-Phe-Gly-Phe-Gly-Gln-Gln-Ser]", "values": [{"measurement": "Gross observations", "setting": "Sprague-Dawley rats", "result": "some fluid buildup at day 3"}, {"measurement": "Behaviour of gel after disruption by vortexing", "setting": "[1]; 4 wt % in water", "result": "reform when left alone"}, {"measurement": "Time to self-supporting gel", "setting": "[1]; 4 wt % in water", "result": "approx. 5 minutes"}, {"measurement": "Gelation (self-supporting gel on inversion), DMEM", "setting": "[1]; no calcium added", "result": "Yes and Yes,"}, {"measurement": "Gelation (self-supporting gel on inversion), DMEM", "setting": "[1]; no calcium added, listed as Gly-Phe-Gly-Phe-Gly-Phe-Gly-Gln-Gln-Ser(DPA)_ (SEQ ID NO: 8)", "result": "Yes,"}, {"measurement": "Concentration at which gel forms, PBS", "setting": "[1]", "result": "4 wt % and 4%"}, {"measurement": "Gelation (self-supporting gel on inversion), PBS", "setting": "[1]", "result": "Yes and Yes,"}, {"measurement": "Gelation (self-supporting gel on inversion), PBS", "setting": "[1]; [5]", "result": "Yes,"}, {"measurement": "Concentration at which gel forms, PBS", "setting": "[1]; [5]", "result": 4, "unit": "%"}, {"measurement": "Concentration at which gel forms, Water", "setting": "[1]", "result": "4 wt % and 4%"}, {"measurement": "Gelation (self-supporting gel on inversion), Water", "setting": "[1]", "result": "Yes and Yes,"}, {"measurement": "Gelation (self-supporting gel on inversion), Water", "setting": "[1]; [5]", "result": "Yes,"}, {"measurement": "Concentration at which gel forms, Water", "setting": "[1]; [5]", "result": 4, "unit": "%"}, {"measurement": "Concentration at which gel forms, DMEM", "setting": "[1]; no calcium added", "result": 2, "unit": "%"}, {"measurement": "Concentration at which gel forms, DMEM", "setting": "[1]; no supplemental calcium", "result": 2, "unit": "wt %"}, {"measurement": "Viability of hUTC cells, Live/Dead", "setting": "[2]", "result": "very limited numbers of dead cells were detected"}, {"measurement": "Gel point after mixing", "setting": "[3]", "result": 74, "unit": "s"}, {"measurement": "Viability of hKDC cells, Live/Dead", "setting": "[4]", "result": "very limited numbers of dead cells were detected"}]}]}
